Test results taken from ChEMBL document CHEMBL5252558, “Noonindoles G-L: Indole Diterpene Glycosides from the Australian Marine-Derived Fungus Aspergillus noonimiae CMB-M0339” (J Nat Prod, 2023).
pIC50: −log10 of the molar value. Calls of active or inactive are those of the source. The calls are words filed in the database; no cut-off is given here.

How the values were obtained:
Escherichia coli = experiment: Antibacterial activity against Escherichia coli ATCC 11775 assessed as inhibition of bacterial growth incubated for 24 hrs by spectrophotometric analysis; format: functional, organism-based
Staphylococcus aureus = experiment: Antibacterial activity against Staphylococcus aureus ATCC 25923 assessed as inhibition of bacterial growth incubated for 24 hrs by spectrophotometric analysis; format: functional, organism-based
Candida albicans = experiment: Antifungal activity against Candida albicans ATCC 10231 assessed as inhibition of fungal growth incubated for 48 hrs by spectrophotometric analysis; format: functional, organism-based
Bacillus subtilis = experiment: Antibacterial activity against Bacillus subtilis ATCC 6633 assessed as inhibition of bacterial growth incubated for 24 hrs by spectrophotometric analysis; format: functional, organism-based
SW-620 = experiment: Cytotoxicity against human SW620 cells assessed as inhibition of cell growth incubated for 68 hrs by MTT assay; format: functional, cell-based; conditions: SW-620, 68 h
NCI-H460 = experiment: Cytotoxicity against human NCI-H460 cells assessed as inhibition of cell growth incubated for 68 hrs by MTT assay; format: functional, cell-based; conditions: NCI-H460, 68 h

Row | Compound | Activity (Escherichia coli) | Activity (Staphylococcus aureus) | Activity (Candida albicans) | Activity (Bacillus subtilis) | pIC50 (SW-620) | pIC50 (NCI-H460)
1 | CC(C)(O[C@@H]1O[C@H](CO)[C@@H](O)[C@H](O)[C@@H]1O)[C@H]1O[C@@]2(O)CC[C@@]3(C)[C@@H](CC[C@H]4Cc5c([nH]c6ccccc56)[C@@]43C)C2=CC1=O | inactive | inactive | inactive | inactive | < 4.52 | < 4.52
2 | CC(C)(O[C@@H]1O[C@H](CO)[C@@H](O)[C@H](O)[C@@H]1O)[C@@H]1CC[C@]2(C=O)[C@H](CC[C@@]3(C)[C@H]2CC[C@H]2Cc4c([nH]c5ccccc45)[C@@]23C)O1 | inactive | inactive | inactive | inactive | < 4.52 | < 4.52
3 | CC(C)(O[C@@H]1O[C@H](CO)[C@@H](O)[C@H](O)[C@@H]1O)[C@H]1O[C@H]2CC[C@@]3(C)[C@@H](CC[C@H]4Cc5c([nH]c6ccccc56)[C@@]43C)C2=C[C@H]1O | inactive | inactive | inactive | inactive | < 4.52 | < 4.52
4 | CC(C)(O[C@@H]1O[C@H](CO)[C@@H](O)[C@H](O)[C@@H]1O)[C@@H]1CC[C@]2(CO)[C@H](CC[C@@]3(C)[C@H]2CC[C@H]2Cc4c([nH]c5ccccc45)[C@@]23C)O1 | inactive | inactive | inactive | inactive | < 4.52 | < 4.52
5 | CC(C)(O[C@@H]1O[C@H](CO)[C@@H](O)[C@H](O)[C@@H]1O)[C@@H]1CC[C@]2(C)[C@H](CC[C@@]3(C)[C@H]2CC[C@H]2Cc4c([nH]c5ccccc45)[C@@]23C)O1 | inactive | inactive | inactive | inactive | < 4.52 | < 4.52
6 | CC(C)(O[C@@H]1O[C@H](CO)[C@@H](O)[C@H](O)[C@@H]1O)[C@H]1O[C@H]2CC[C@@]3(C)[C@@H](CC[C@H]4Cc5c([nH]c6ccccc56)[C@@]43C)C2=CC1=O | inactive | inactive | inactive | inactive | < 4.52 | < 4.52
